Reference: article PMC9022420 (Scientific Reports, 2022)
pIC50: −log10 of the molar value.

Assays:
[1] = test system: murine hepatitis virus A59 strain (MHV-A59); test: Photodynamic inactivation of MHV-A59 (TCID50 assay in 17Cl-1 cells); format: cell-based
Procedure: The efficacy of the flavins were enumerated utilizing modified methods from ISO 18,184 and Leibowitz et al.[56] […] 100 µM working stock solutions were then created by diluting each DMSO solution into PBS. To control for the effect of DMSO on MHV-A59, DMSO was diluted into PBS at the same concentration. A white light apparatus was set up to cover a 4 × 5 (row x column) area of a 96-well plate with the same level of light intensity (1 × 10^5 lx). The stock solutions were then diluted in replicates of four to a total of 180 µl in PBS at 1, 5, and 10 µM concentrations for each sample. Virus stocks of MHV-A59 were thawed on ice prior to use. 20 µl of MHV-A59 stock (1.4 × 10^9 PFU/ml) was then mixed into each well, and the 4 × 5 well matrix was treated with the light or incubated in the dark at room temperature for a specified time (5, 10, or 15 min).
After treatment, the samples were mixed into 320 µl of Gibco Difco™ Beef Extract (1.5% w/v beef extract in ddH2O; Life Technologies) and rolled for 15 min to chelate any free ions in the solution. The samples then were serially diluted (10^0–10^–7) in infectivity media (Dulbecco’s modified Eagle’s medium low glucose 1 g/L (DMEM, Life Technologies) supplemented with 2.5% fetal bovine serum (Merck), 3% tryptose phosphate broth (Merck), 1 × non-essential amino acids (Gibco), 1 × antibiotic–antimycotic (Thermo Fisher Scientific) and 1 × L-Glutamine (Gibco]) and added in triplicate to 17Cl-1 cell plates. For each sample or control there were 4 replicate treatments (in light or dark); each treatment replicate was plated in triplicate. Infected 17Cl-1 plates were incubated at 37 °C in a 5% CO2 atmosphere for 24 h. Plates were scored for cytopathic effect (CPE) by microscopy and viral titres were determined by the Reed and Muench 50% tissue culture infectious dose (TCID50) end point method. Outliers were removed from the four replicates using an outlier test. The full protocol was repeated in triplicate on different days to account for any variability in the assay.

[2] = Singlet oxygen quantum yield determination; format: physicochemical; details: in MeCN; for φΔ singlet oxygen quantum yield: calculated using Ru(bpy)3^2+ as the reference
WI-38 cells [3] = test: Light-induced toxicity towards WI-38 cells (MTS); format: cell-based, human; details: 10 μM flavin, 15 min irradiation 1 × 10^5 lx
Procedure: An adapted method reported by Maisch et al. was used to conduct phototoxicity studies on human lung fibroblasts, WI-38[28]. Cells were seeded into 96-well plates containing 10,000 cells/well in 100 µL complete growth medium and cultured for 24 h at 37 °C and 5% CO2. […] The resulting mixtures were then incubated in the dark for 5 min and then either illuminated with 1 × 10^5 lx for 5, 10 or 15 min, or incubated further in the dark for 15 min (dark control). After irradiation, the flavin solutions were removed and 100 μL of DMEM with 10% FBS and without phenol red was added to each well and incubated over night at 37 °C and 5% CO2. Subsequently, 20 µL of MTS reagent was added into each well and incubated at 37 °C and 5% CO2 for 1–4 h and the absorbance of each well was measured at 490 nm using a plate reader. Control measurements included negative control untreated cells with light and in the dark containing 0.1% DMSO and cells treated with flavins for 15 min in the dark. All experiments were conducted in biological triplicates. The percentage cell viability was calculated according to Eq. (1).

[4] = Fluorescence quantum yield determination; format: physicochemical; details: in DMSO; for φF fluorescence quantum yield: calculated using riboflavin as the reference
Procedure: 4 Fluorescence Quantum Yield Calculations
The fluorescence quantum yields (ФF) for F1-4 were determined by preparing a series of dilutions in DMSO ranging
in absorbance values from 0.02 to 0.10 and excited at their respective absorbance maxima (see Table S1).3 The
emission peak was then integrated and plotted against the absorbance value (see Figure S1). Riboflavin (from
according to equation (1):
Φ!;#$%&’( = Φ!;)(* $ !"#$%&% $ !"#$%&) % (1)
Where Slope = gradient from the plot of integrated emission peak vs. absorption value and η = refractive index
Flavin ε (M-1cm-1) λex (nm) λem (nm)
Figure S2: Plot of integrated emission peak against absorbance value of flavins F1-4 and reference compound

[5] = UV-Vis absorption and emission spectra of flavins in DMSO; format: physicochemical; details: measured in DMSO
17Cl-1 cells = test: 24 h MTS cytotoxicity assay, 17Cl-1; format: cell-based, murine; details: Mus musculus, 24 h incubation, dark
Procedure: (§1) The MTS tetrazolium compound is reduced by cells into a coloured formazan product which is soluble in cell culture media. It can be detected colorimetrically between 450 and 540 nm with the measured absorbance directly proportional to the amount of metabolically active cells in culture. Cells were seeded into clear 96-well plates containing 10,000 cells/well in 100 µL complete growth medium and cultured for 24 h at 37 °C and 5% CO2. […] After further 24 h incubation at 37 °C and 5% CO2, 20 µL of CelTiter 96® AQueous One Solution (Promega) was added into each well and incubated at 37 °C, 5% CO2 for 1–4 h, according to the manufacturer’s instruction. The absorbance of each well was measured at 490 nm using a plate reader (Spark, Tecan). Control measurements included negative control of cells with DMEM, cells with DMEM containing 0.1% DMSO, cell-free culture media (blank) and cell-free sample dilutions in culture media to evaluate potential sample interferences with MTS assay. All experiments were conducted in biological triplicates. The percentage cell viability was calculated according to Eq. (1):1 Cell viability(%)=100×Absorbanceoftreatedcells-Absorbanceofblank/Absorbanceofcontrol-Absorbanceofblank

WI-38 cells [6] = test: 24 h MTS cytotoxicity assay, WI-38; format: cell-based; details: Homo sapiens, 24 h incubation, dark
Procedure: as §1

[7] = test system: ssRNA (EGFP-encoding mRNA, ~ 1 k nt); test: ssRNA photocleavage, agarose gel electrophoresis; format: biochemical; details: 10 µM flavin, 15 min white LED, PBS 0.1% DMSO
Procedure: A 20 µL aliquot was taken after 15 min of white LED irradiation (1 × 10^5 lx). Prior to loading, 2 µL of 6X Orange-G loading dye in glycerol were added to the aliquot and mixed vigorously. The gel was electrophoresed at 80 V for 35 min with 1% agarose gels in 1X Tris–acetate-EDTA (TAE) buffer. Gels were then imaged in a Syngene G:BOX Gel Documentation System and band % quantification was performed using ImageJ Gel Analyzer.

[8] = 5 µM flavin, 10 min irradiation
[9] = 10 µM flavin, 10 min irradiation
[10] = 1 µM flavin, 10 min irradiation (21.0 J/cm^2)

Compound | MHV-A59 log10 reduction in viral titre [1, 8] [log10] | MHV-A59 log10 reduction in viral titre ([1]; 10 µM flavin, 5 min irradiation (10.5 J/cm^2)) [log10] | MHV-A59 log10 reduction in viral titre [1, 9] [log10] | MHV-A59 log10 reduction in viral titre ([1]; 10 µM flavin, 15 min irradiation (31.5 J/cm^2)) [log10] | φΔ singlet oxygen quantum yield [2] | reduction in cell viability (light-induced toxicity) (WI-38 cells [3]) | ФF fluorescence quantum yield [4] [%] | φF fluorescence quantum yield [4] | λ1 (S0 → S1 absorption band) [5] [nm] | λ2 (S0 → S2 absorption band) [5] [nm] | λem (emission wavelength) [5] [nm] | pIC50 (17Cl-1 cells) | pIC50 (WI-38 cells [6]) | % cleaved ssRNA [7] [%] | MHV-A59 log10 reduction in viral titre [1, 10] [log10] | MHV-A59 viral load reduction [1, 8] [%] | ФΔ singlet oxygen quantum yield [2] [%] | viral inactivation, log10 reduction ([1]; 15 min irradiation at 1 μM) [log10]
CCCCCCCCn1c(=O)nc2n(CCN)c3cc(C)c(C)cc3nc-2c1=O [Flavin F1] | 1.7 | 1.2 | 2.1 | 2.2 | 0.49 ± 0.12 | no decrease in cell viability | 13 | 0.129 ± 0.012 | 444 | 349 | 507 | 4.15 | 4.02 | 12 | – | – | – | –
CCCCCCCCn1c(=O)nc2n(CCNC(=N)N)c3cc(C)c(C)cc3nc-2c1=O [Flavin F2] | 3.9 | – | 3.8 | – | 0.55 ± 0.10 | ~ 75% | 14 | 0.141 ± 0.010 | 446 | 350 | 512 | < 4.00 | < 4.00 | 46 | 2.1 | > 99.9 | 55 | –
CCCCCCCCn1c(=O)nc2n(CCN)c3cc(Br)c(Br)cc3nc-2c1=O [Flavin F3] | 4.1 | – | 4.8 | – | 0.85 ± 0.09 | no decrease in cell viability | < 2 | 0.009 ± 0.013 | 443 | 336 | 508 | 5.44 | 4.51 | 35 | 2.1 | > 99.99 | 85 | –
CCCCCCCCn1c(=O)nc2n(CCNC(=N)N)c3cc(Br)c(Br)cc3nc-2c1=O [Flavin F4] | – | – | – | – | 0.62 ± 0.10 | ~ 20% | < 2 | 0.011 ± 0.010 | 444 | 340 | 513 | 4.29 | < 4.00 | 42 | 3.4 | > 99.99 | 62 | > 3
